Values of other authors, collected in patent publication US8263648B2, “Diebenzofuran derivatives as inhibitors of PDE-4 and PDE-10” (Mylan Laboratories Ltd., priority 2006, dated 2012).

Key:
[1] = oral dosages of up to 100 mg/kg
[2] = molecular target: PDE10A1 (Homo sapiens, UniProt Q9Y233); details: substrate of PDE10A1, a splice variant of PDE10
Chain of PDE10A1 (Q9Y233 1-779 isoform Q9Y233-1): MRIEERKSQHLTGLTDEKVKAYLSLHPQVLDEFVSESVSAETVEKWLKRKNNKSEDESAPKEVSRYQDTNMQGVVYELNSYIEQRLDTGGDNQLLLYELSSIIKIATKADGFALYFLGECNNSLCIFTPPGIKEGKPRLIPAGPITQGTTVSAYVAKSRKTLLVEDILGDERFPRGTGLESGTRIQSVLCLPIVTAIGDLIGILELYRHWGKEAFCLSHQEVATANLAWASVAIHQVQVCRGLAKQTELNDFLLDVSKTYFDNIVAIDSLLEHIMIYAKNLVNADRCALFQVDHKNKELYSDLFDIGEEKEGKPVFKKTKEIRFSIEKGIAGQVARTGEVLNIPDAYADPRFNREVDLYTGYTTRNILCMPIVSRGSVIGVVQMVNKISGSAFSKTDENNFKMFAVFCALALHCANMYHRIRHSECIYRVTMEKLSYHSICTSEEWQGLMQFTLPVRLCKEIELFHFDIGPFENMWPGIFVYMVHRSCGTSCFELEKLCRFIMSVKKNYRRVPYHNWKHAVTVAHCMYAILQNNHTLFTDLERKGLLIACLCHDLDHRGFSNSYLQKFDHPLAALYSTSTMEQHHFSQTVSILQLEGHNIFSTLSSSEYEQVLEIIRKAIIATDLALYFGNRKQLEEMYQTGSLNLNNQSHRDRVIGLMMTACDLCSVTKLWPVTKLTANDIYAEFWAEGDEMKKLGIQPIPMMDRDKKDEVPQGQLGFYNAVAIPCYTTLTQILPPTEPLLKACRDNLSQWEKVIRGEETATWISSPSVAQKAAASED

Row | SMILES | emetic effect [1] | Km [2] [µM]
1 | CS(=O)(=O)Nc1ccc2oc3c(OC(F)F)ccc(C(=O)Nc4c(Cl)cncc4Cl)c3c2c1 [GRC3886] | no emetic effect | 
2 | Nc1nc2c(ncn2[C@@H]2O[C@@H]3COP(=O)(O)O[C@H]3[C@H]2O)c(=O)[nH]1 [cGMP] |  | 3
